Patent US20100227921A1, “AMINO ACID AND PEPTIDE CARBAMATE PRODRUGS OF […] USES THEREOF” (SHIRE LLC, priority 2009, published 2010)
Values joined by “and” are separate entries in the source; they are usually repeats but may differ in a detail not shown here. Equal values may be shown once. Read-outs that look alike come from different tables or passages of the source. Marks after values point to notes of the source that are not given here.

Columns and labels:
[1] = Comparative bioavailability after oral administration to rats (plasma LC-MS-MS); format: in vivo; details: male, Sprague Dawley, rat, plasma, po, 10 mg free base equiv/kg, oral tapentadol 10 mg free base equiv/kg
Procedure: Test substances, i.e., tapentadol or tapentadol valine carbamate were administered by oral gavage to groups of male Sprague Dawley rats.
(§1) Blood samples were taken at various times after administration and submitted to analysis for the parent drug and pro-drug using a validated LC-MS-MS assay. Pharmacokinetic parameters derived from the plasma analytical data were determined using Win Nonlin.

[2] = system: guinea pig small intestine myenteric plexus longitudinal muscle; assay: Electrical field stimulation response of isolated guinea pig small intestine smooth muscle (ex vivo); details: Cavia porcellus; isolated guinea pig ileum, EFS 14 Hz, non-cumulative 10 nM-30 μM; read-out: approximate EC50, effect on electrical field stimulation response
Procedure: Strips of guinea pig small intestine myenteric plexus longitudinal muscle and mounted between platinum ring electrodes. The tissue was stretched to a steady tension of about 1 g and changes in force production were recorded using sensitive transducers.
The optimal voltage for stimulation was determined while the tissue was paced with electrical field stimulation (EFS) at 14 Hz, with a pulse width of 0.5 msec (Trains of pulses for 20 seconds, every 50 seconds).
EFS at optimal voltage continued throughout the protocol (stable responses=“baseline measurement of EFS”).
The 3 test conditions employed were as follows:
(1) Vehicle (deionised water, added at equivalent volume additions to test articles), (2) Tapentadol at 6 concentrations (10 nM, 100 nM, 1 μM, 3 μM, 10 μM & 30 μM) (3) Tapentadol valine carbamate at 6 concentrations (10 nM, 100 nM, 1 μM, 3 μM, 10 μM, & 30 μM).
Following 10 minutes of baseline EFS, first addition of test article or vehicle (deionized water) was performed.
Test concentrations were added in a non-cumulative manner with PSS washes between each addition. Next, TTX (Na+ channel blocker) was added to confirm EFS responses were elicited via nerve stimulation. EFS was then stopped.

[3] = 75 mg immediate release dosage; Afilalo et al. 2008; cited from earlier work
[4] = Comparative in vivo bioavailability study in the dog (oral gavage, plasma LC-MS-MS); details: for half-life / AUC / AUC(0-t) / Cmax / Tmax: Beagle, plasma, po
Procedure: Test substances (i.e., tapentadol (1 mg/kg) and tapentadol valine carbamate (0.8 mg tapentadol base equivalents/kg)) were administered by oral gavage to a group of five dogs (dog nos. 1, 2, 3, 4 and 5) in a two-way crossover design. The characteristics of the test animals are set out in Table 3.
as §1

[5] = cited from earlier work
[6] = oral tapentadol HCl 1 mg tapentadol base equiv/kg, individual dogs 1-5
[7] = oral tapentadol valine carbamate 0.8 mg tapentadol base equiv/kg, individual dogs 1-5

CC[C@@H](c1cccc(O)c1)[C@@H](C)CN(C)C (racemic) [Tapentadol, (−)-(1R,2R)-3-(3-dimethyl-amino-1-ethyl-2-methyl-propyl)-phenol]
half-life ([1]; mean, animal 5 and estimates excluded, read-out: t½ of tapentadol (converted)): 2.64 h | AUC(0-t) ([1]; mean, animal 5 excluded, read-out: AUCt of tapentadol): 16.4 ng·h/mL | Cmax ([1]; mean, animal 5 excluded, read-out: Cmax of tapentadol): 4.67 ng/mL | Tmax ([1]; median, animal 5 excluded, read-out: Tmax of tapentadol): 1 h | EC50 [2]: ~200 nM | patients with nausea/vomiting [3]: 30-35% | treated patients with constipation [3]: ~11% | half-life ([4]; 0.8 mg/kg, oral tapentadol valine carbamate 0.8 mg tapentadol base equiv/kg, calculated as ln2/mean k, read-out: t½ of tapentadol (converted)): 0.8 h | AUC ([4]; 0.8 mg/kg, oral tapentadol valine carbamate 0.8 mg tapentadol base equiv/kg, individual dogs 1-5, read-out: AUC of tapentadol): 31.4 ng·h/mL | AUC(0-t) ([4]; 0.8 mg/kg, oral tapentadol valine carbamate 0.8 mg tapentadol base equiv/kg, individual dogs 1-5, read-out: AUCt of tapentadol): 29.5 ng·h/mL | Cmax ([4]; 0.8 mg/kg, oral tapentadol valine carbamate 0.8 mg tapentadol base equiv/kg, individual dogs 1-5, read-out: Cmax of tapentadol): 13.7 ng/mL | Tmax ([4]; 0.8 mg/kg, oral tapentadol valine carbamate 0.8 mg tapentadol base equiv/kg, individual dogs 1-5, read-out: Tmax of tapentadol): 1 h | half-life ([4]; 0.8 mg/kg, oral tapentadol valine carbamate 0.8 mg tapentadol base equiv/kg, individual dogs 1-5, read-out: t½ of tapentadol (converted)): 0.8 h | AUC ([4]; 0.8 mg/kg, oral tapentadol valine carbamate 0.8 mg tapentadol base equiv/kg, mean of 5 dogs, read-out: AUC of tapentadol): 34.2 ng·h/mL | AUC(0-t) ([4]; 0.8 mg/kg, oral tapentadol valine carbamate 0.8 mg tapentadol base equiv/kg, mean of 5 dogs, read-out: AUCt of tapentadol): 32 ng·h/mL | Cmax ([4]; 0.8 mg/kg, oral tapentadol valine carbamate 0.8 mg tapentadol base equiv/kg, mean of 5 dogs, read-out: Cmax of tapentadol): 14.5 ng/mL | Tmax ([4]; 0.8 mg/kg, oral tapentadol valine carbamate 0.8 mg tapentadol base equiv/kg, median of 5 dogs, read-out: Tmax of tapentadol): 1 h | half-life ([4]; 1 mg/kg, oral tapentadol HCl 1 mg tapentadol base equiv/kg, calculated as ln2/mean k, read-out: t½ of tapentadol (converted)): 1.2 h | Tmax ([4]; 1 mg/kg, oral tapentadol HCl 1 mg tapentadol base equiv/kg, individual dogs 1-5, read-out: Tmax of tapentadol): 0.5 h | AUC ([4]; 1 mg/kg, oral tapentadol HCl 1 mg tapentadol base equiv/kg, mean of 5 dogs, read-out: AUC of tapentadol): 2.78 ng·h/mL | AUC(0-t) ([4]; 1 mg/kg, oral tapentadol HCl 1 mg tapentadol base equiv/kg, mean of 5 dogs, read-out: AUCt of tapentadol): 2.56 ng·h/mL | Cmax ([4]; 1 mg/kg, oral tapentadol HCl 1 mg tapentadol base equiv/kg, mean of 5 dogs, read-out: Cmax of tapentadol): 1.45 ng/mL | Tmax ([4]; 1 mg/kg, oral tapentadol HCl 1 mg tapentadol base equiv/kg, median of 5 dogs, read-out: Tmax of tapentadol): 0.5 h | AUC of tapentadol [4, 6]: 1.96 ng·h/mL and 2.02 ng·h/mL and 3.38 ng·h/mL and 4.53 ng·h/mL and 1.99 ng·h/mL | AUCt of tapentadol [4, 6]: 1.84 ng·h/mL and 1.88 ng·h/mL and 2.68 ng·h/mL and 4.48 ng·h/mL and 1.92 ng·h/mL | Cmax of tapentadol [4, 6]: 0.75 ng/mL and 1.77 ng/mL and 1.27 ng/mL and 2.39 ng/mL and 1.08 ng/mL | T>50%Cmax of tapentadol [4, 6]: 1.5 h (2×) and 0 h and 0.5 h (2×) | T>50%Cmax of tapentadol ([4]; oral tapentadol HCl 1 mg tapentadol base equiv/kg, median of 5 dogs): 0.5^a h | AUC of tapentadol [4, 7]: 25.5 ng·h/mL and 39.9 ng·h/mL and 29.1 ng·h/mL and 45.0 ng·h/mL | AUCt of tapentadol [4, 7]: 22.8 ng·h/mL and 36.4 ng·h/mL and 28.3 ng·h/mL and 43.2 ng·h/mL | Cmax of tapentadol [4, 7]: 11.1 ng/mL and 17.0 ng/mL and 11.7 ng/mL and 19.3 ng/mL | T>50%Cmax of tapentadol [4, 7]: 1 h (3×) and 1.5 h (2×) | Tmax of tapentadol [4, 7]: 2 h | t½ of tapentadol [4, 7]: 1.1 h and 0.9 h and 1.0 h and 0.6 h | T>50%Cmax of tapentadol ([4]; oral tapentadol valine carbamate 0.8 mg tapentadol base equiv/kg, median of 5 dogs): 1^a h | clearance (printed C1) ([5]; Terlinden et al. (2007)): 1468 ± 122 mL/min | plasma half-life ([5]; humans): 4.5 h
